Data published in patent US12077503B2, “Substituted cyclic amides and their use as herbicides” (FMC CORPORATION, priority 2015, dated 2024).

How the values were obtained:
Format in all cases: in vivo
Conditions in all cases: scale 0 to 100
[1] = test system: field violet (Viola arvensis); assay: Test D preemergence
Outline: (§1)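 Seeds of the weed and crop species were sown in silt loam soil and treated preemergence with compounds formulated in a non-phytotoxic solvent mixture containing surfactant. After about 21 d in a controlled growth environment, plants were visually rated against untreated controls on a 0–100 scale (0 = no effect, 100 = complete control).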

[2] = test system: pigweed (Amaranthus retroflexus); assay: Test D preemergence
Outline: as §1

[3] = test system: wheat, spring (spring wheat, Triticum aestivum); assay: Test D preemergence
Outline: as §1

[4] = test system: barley, spring (spring barley, Hordeum vulgare); assay: Test D preemergence
Outline: as §1

[5] = test system: blackgrass (Alopecurus myosuroides); assay: Test D preemergence
Outline: as §1

[6] = test system: foxtail, giant (giant foxtail, Setaria faberii); assay: Test E postemergence
Text: (§2) Seeds of plant species selected from corn (Zea mays), soybean (Glycine max), velvetleaf (Abutilon theophrasti), lambsquarters (Chenopodium album), poinsettia, wild (wild poinsettia, Euphorbia heterophylla), pigweed, palmer (palmer pigweed, Amaranthus palmeri), waterhemp (common waterhemp, Amaranthus rudis), surinam grass (Brachiaria decumbens), crabgrass, large (large crabgrass, Digitaria sangumnalis), crabgrass, Brazil (Brazilian crabgrass, Digitaria horizontalis), Panicum, fall (fall Panicum, Panicum dichotomiflorum), foxtail, giant (giant foxtail, Setaria faberii), foxtail, green (green foxtail, Setaria viridis), goosegrass (Eleusine indica), johnsongrass (Sorghum halepense), ragweed (common ragweed, Ambrosia elatior), barnyardgrass (Echinochloa crus-galli), sandbur (southern sandbur, Cenchrus echinatus), arrowleaf Sida (Sida rhombifolia), ryegrass, Italian (Italian ryegrass, Lolium multiflorum), dayflower, VA (Virginia dayflower, Commelina virginica), field bindweed (Convolvulus arvensis), morningglory (Ipomoea coccinea), nightshade (eastern black nightshade, Solanum ptycanthum), Kochia (Kochia scoparia), nutsedge, yellow (yellow nutsedge, Cyperus esculentus), horseweed (Conyza canadensis), and beggarticks (hairy beggarticks, Bidens pilosa), were planted into a silt loam soil and treated preemergence with test chemicals formulated in a non-phytotoxic solvent mixture which included a surfactant.
(§3) At the same time, plants selected from these crop and weed species were planted in pots containing Sunshine Redi-Earth planting medium comprising spaghnum peat moss, vermiculite, starter nutrients and dolomitic limestone and treated with postemergence applications of a test chemical formulated in the same manner. Plants ranged in height from 2 to 18 cm (1- to 4-leaf stage) for postemergence treatments. Treated plants and controls were maintained in a greenhouse for 14 to 21 d, after which time all species were compared to controls and visually evaluated. Plant response ratings, summarized in Table E, are based on a scale of 0 to 100 where 0 is no effect and 100 is complete control. A dash (-) response means no test result.

[7] = test system: waterhemp (common waterhemp, Amaranthus rudis); assay: Test E postemergence
Text: as §2, §3

[8] = test system: pigweed, palmer (palmer pigweed, Amaranthus palmeri); assay: Test E postemergence
Text: as §2, §3

[9] = test system: crabgrass, large (large crabgrass, Digitaria sangumnalis); assay: Test E postemergence
Text: as §2, §3

[10] = test system: soybean (Glycine max); assay: Test E postemergence
Text: as §2, §3

[11] = test system: corn (Zea mays); assay: Test E postemergence
Text: as §2, §3

## CN1C[C@H](c2ccc(C(F)(F)F)cc2)[C@@H](C(=O)Nc2cccc(F)c2F)C1=O [Compound 623, (3S,4S)—N-(2,3-difluorophenyl)-1-methyl-2-oxo-4-[4-(trifluoromethyl)phenyl]-3-pyrrolidinecarboxamide]
[1]; 31 g ai/ha
  Plant response rating: Field Violet: 0
[1]; 62 g ai/ha
  Plant response rating: Field Violet: 0
[1]; 125 g ai/ha
  Plant response rating: Field Violet: 10
[1]; 250 g ai/ha
  Plant response rating: Field Violet: 15
[2]; 31 g ai/ha
  Plant response rating: Pigweed: 75
[2]; 62 g ai/ha
  Plant response rating: Pigweed: 95
[2]; 125 g ai/ha
  Plant response rating: Pigweed: 95
[2]; 250 g ai/ha
  Plant response rating: Pigweed: 100
[3]; 31 g ai/ha
  Plant response rating: Wheat, Spring: 5
[3]; 62 g ai/ha
  Plant response rating: Wheat, Spring: 10
[3]; 125 g ai/ha
  Plant response rating: Wheat, Spring: 20
[3]; 250 g ai/ha
  Plant response rating: Wheat, Spring: 45
[4]; 31 g ai/ha
  Plant response rating: Barley, Spring: 5
[4]; 62 g ai/ha
  Plant response rating: Barley, Spring: 15
[4]; 125 g ai/ha
  Plant response rating: Barley, Spring: 35
[4]; 250 g ai/ha
  Plant response rating: Barley, Spring: 65
[5]; 31 g ai/ha
  Plant response rating: Blackgrass: 30
[5]; 62 g ai/ha
  Plant response rating: Blackgrass: 40
[5]; 125 g ai/ha
  Plant response rating: Blackgrass: 45
[5]; 250 g ai/ha
  Plant response rating: Blackgrass: 70
[6]; 16 g ai/ha
  Plant response rating: Foxtail, Giant: 5
[6]; 31 g ai/ha
  Plant response rating: Foxtail, Giant: 54
[6]; 62 g ai/ha
  Plant response rating: Foxtail, Giant: 56
[6]; 125 g ai/ha
  Plant response rating: Foxtail, Giant: 78
[6]; 250 g ai/ha
  Plant response rating: Foxtail, Giant: 69
[7]; 16 g ai/ha
  Plant response rating: Waterhemp: 11
[7]; 31 g ai/ha
  Plant response rating: Waterhemp: 45
[7]; 62 g ai/ha
  Plant response rating: Waterhemp: 55
[7]; 125 g ai/ha
  Plant response rating: Waterhemp: 65
[7]; 250 g ai/ha
  Plant response rating: Waterhemp: 68
[8]; 16 g ai/ha
  Plant response rating: Pigweed, Palmer: 6
[8]; 31 g ai/ha
  Plant response rating: Pigweed, Palmer: 19
[8]; 62 g ai/ha
  Plant response rating: Pigweed, Palmer: 43
[8]; 125 g ai/ha
  Plant response rating: Pigweed, Palmer: 40
[8]; 250 g ai/ha
  Plant response rating: Pigweed, Palmer: 68
[9]; 16 g ai/ha
  Plant response rating: Crabgrass, Large: 1
[9]; 31 g ai/ha
  Plant response rating: Crabgrass, Large: 10
[9]; 62 g ai/ha
  Plant response rating: Crabgrass, Large: 10
[9]; 125 g ai/ha
  Plant response rating: Crabgrass, Large: 30
[9]; 250 g ai/ha
  Plant response rating: Crabgrass, Large: 55
[10]; 16 g ai/ha
  Plant response rating: Soybean: 0
[10]; 31 g ai/ha
  Plant response rating: Soybean: 0
[10]; 62 g ai/ha
  Plant response rating: Soybean: 20
[10]; 125 g ai/ha
  Plant response rating: Soybean: 19
[10]; 250 g ai/ha
  Plant response rating: Soybean: 35
[11]; 16 g ai/ha
  Plant response rating: Corn: 0
[11]; 31 g ai/ha
  Plant response rating: Corn: 0
[11]; 62 g ai/ha
  Plant response rating: Corn: 1
[11]; 125 g ai/ha
  Plant response rating: Corn: 1
[11]; 250 g ai/ha
  Plant response rating: Corn: 4
